From US8609661B2, “Pyrimido-pyrrolo-quinoxalinedione inhibitors of cystic fibrosis transmembrane conductance regulator protein and uses therefor” (The Regents of the University of California, priority 2009, dated 2013) come the findings set out here.

Usually IC50 stands for the concentration that gives 50% inhibition.

The assay deals with T1, human wildtype CFTR (Homo sapiens, UniProt P13569).
T1 construct: expressed in transfected cells; host or cells: Fischer rat thyroid (FRT) cells
The experiment in a line: Fluorescence platereader assay of CFTR-mediated iodide influx (YFP quenching) in FRT cells. It counts as cell-based. Particulars: for inhibition at 5 µM / inhibition at 25 µM: FRT; for IC50: apparent IC50 from concentration-inhibition data, fluorescence platereader assay. The gist of the method:
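Fischer rat thyroid cells co-expressing human wildtype CFTR and the YFP-H148Q/1152L halide sensor were seeded at 20,000 cells per well in 96-well black-walled plates and assayed 48 h later at confluence. After PBS washes and a 15 min incubation, CFTR was maximally activated with an agonist mixture. Fluorescence was recorded for 2 s before and 10 s after adding 160 μL iodide-substituted PBS, and iodide influx rates came from non-linear regression.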

Where [1] appears, read: Table 2, screening, 5 μM, read-out: % Inhibition at 5 μM.
Where [2] appears, read: Table 2, screening, 25 μM, read-out: % Inhibition at 25 μM.
Where [3] appears, read: read-out: % inhibition at 25/5 μM (5 μM value), Table 1, 5 μM compound.
Where [4] appears, read: read-out: % inhibition at 25/5 μM (25 μM value), Table 1, 25 μM compound.

Each structure is given as a SMILES string. Where two headings read alike, the source gives them in different places.

T1 sequence (P13569 whole entry): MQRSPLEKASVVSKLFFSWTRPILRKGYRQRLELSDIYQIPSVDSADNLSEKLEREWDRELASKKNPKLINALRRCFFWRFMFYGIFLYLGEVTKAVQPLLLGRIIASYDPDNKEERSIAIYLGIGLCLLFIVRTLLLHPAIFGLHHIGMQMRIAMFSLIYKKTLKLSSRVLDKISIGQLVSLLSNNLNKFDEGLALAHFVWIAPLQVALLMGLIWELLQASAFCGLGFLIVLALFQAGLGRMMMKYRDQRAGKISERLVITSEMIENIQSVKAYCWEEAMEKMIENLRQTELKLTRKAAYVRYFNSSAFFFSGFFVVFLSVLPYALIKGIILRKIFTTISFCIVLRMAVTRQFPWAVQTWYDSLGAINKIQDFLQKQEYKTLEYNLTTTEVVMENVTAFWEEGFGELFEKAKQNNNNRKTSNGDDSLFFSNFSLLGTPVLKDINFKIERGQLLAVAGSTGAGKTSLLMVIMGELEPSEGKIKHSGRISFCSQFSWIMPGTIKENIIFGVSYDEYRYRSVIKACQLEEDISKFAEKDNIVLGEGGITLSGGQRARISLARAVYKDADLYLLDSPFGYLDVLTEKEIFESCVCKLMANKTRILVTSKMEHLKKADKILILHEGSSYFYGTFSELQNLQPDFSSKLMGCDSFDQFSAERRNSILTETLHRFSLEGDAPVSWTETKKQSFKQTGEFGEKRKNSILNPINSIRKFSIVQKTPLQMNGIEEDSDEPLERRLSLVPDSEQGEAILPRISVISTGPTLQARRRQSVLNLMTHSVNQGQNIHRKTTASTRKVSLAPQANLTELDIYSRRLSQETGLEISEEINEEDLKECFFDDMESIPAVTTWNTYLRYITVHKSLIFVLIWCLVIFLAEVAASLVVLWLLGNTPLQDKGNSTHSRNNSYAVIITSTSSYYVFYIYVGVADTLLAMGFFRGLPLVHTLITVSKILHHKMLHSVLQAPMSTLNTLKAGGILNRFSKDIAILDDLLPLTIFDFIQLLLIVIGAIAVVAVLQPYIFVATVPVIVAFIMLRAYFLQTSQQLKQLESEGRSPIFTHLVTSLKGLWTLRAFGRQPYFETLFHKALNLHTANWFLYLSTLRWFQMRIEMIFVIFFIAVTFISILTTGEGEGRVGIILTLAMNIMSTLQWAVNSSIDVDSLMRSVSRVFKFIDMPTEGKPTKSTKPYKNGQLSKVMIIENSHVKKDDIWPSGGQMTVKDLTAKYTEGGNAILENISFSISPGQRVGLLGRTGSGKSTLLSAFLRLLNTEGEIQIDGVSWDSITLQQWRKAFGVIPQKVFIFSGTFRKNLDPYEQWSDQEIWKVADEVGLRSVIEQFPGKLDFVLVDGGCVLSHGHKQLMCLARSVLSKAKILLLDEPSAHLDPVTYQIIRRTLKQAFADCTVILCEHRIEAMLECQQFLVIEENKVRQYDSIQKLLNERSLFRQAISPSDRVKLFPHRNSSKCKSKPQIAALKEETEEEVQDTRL

Consider `COc1ccc(O)c(C2Nc3ccccc3-n3c(-c4cccc(C)c4)c4c(=O)n(C)c(=O)n(C)c4c32)c1` (stereo not shown) [PPQ-246, 7,9-Dimethyl-11-(3-methylphenyl)-6-(2-hydroxy-5-methoxylphenyl)-5,6-dihydro-pyrimido[4′,5′-3,4]pyrrolo[1,2-a]quinoxaline-8,10-(7H,9H)-dione], for which the inhibition at 5 µM under setting [1] is less than 10%. Further, the inhibition at 25 µM under setting [2] was 50%.
For the compound `Cc1cccc(-c2c3c(=O)n(C)c(=O)n(C)c3c3n2-c2ccccc2NC3c2cccc([N+](=O)[O-])c2F)c1` (stereo not shown) [PPQ-212, 7,9-Dimethyl-11-(3-methylphenyl)-6-(2-fluoro-3-nitrophenyl)-5,6-dihydro-pyrimido[4′,5′-3,4]pyrrolo[1,2-a]quinoxaline-8,10-(7H,9H)-dione], the IC50 was 2000 nM.
In the case of `Cc1cccc(C2Nc3ccccc3-n3c(-c4ccccc4)c4c(=O)n(C)c(=O)n(C)c4c32)c1` (stereo not shown) [PPQ-232, 7,9-Dimethyl-11-phenyl-6-(3-methylphenyl)-5,6-dihydro-pyrimido[4′,5′-3,4]pyrrolo[1,2-a]quinoxaline-8,10-(7H,9H)-dione], the inhibition at 5 µM under setting [1] was found to be 67%. Further, under setting [2], the inhibition at 25 µM was 67%.
Take `Cc1cccc(-c2c3c(=O)n(C)c(=O)n(C)c3c3n2-c2ccccc2NC3c2cccc(O)c2)c1` (stereo not shown) [PPQ-228, 7,9-Dimethyl-11-(3-methylphenyl)-6-(3-hydroxyphenyl)-5,6-dihydro-pyrimido[4′,5′-3,4]pyrrolo[1,2-a]quinoxaline-8,10-(7H,9H)-dione]: the inhibition at 5 µM under setting [1] stood at 30%. Besides, under setting [2], the inhibition at 25 µM was 83%.
For `Cc1cccc(-c2c3c(=O)n(C)c(=O)n(C)c3c3n2-c2ccccc2NC3c2ccccc2)c1` (stereo not shown) [PPQ-250, 7,9-Dimethyl-11-(3-methylphenyl)-6-phenyl-5,6-dihydro-pyrimido[4′,5′-3,4]pyrrolo[1,2-a]quinoxaline-8,10-(7H,9H)-dione] the same measures were 49% and 64%.
For `CCOc1cc(C2Nc3ccccc3-n3c(-c4ccccc4)c4c(=O)n(C)c(=O)n(C)c4c32)ccc1O` (stereo not shown) the same measures were less than 10% and 47%.
Turning to `COc1ccc(C2Nc3ccccc3-n3c(-c4ccc(Cl)cc4)c4c(=O)n(C)c(=O)n(C)c4c32)cc1` (stereo not shown), the inhibition at 5 µM under setting [1] was less than 10%. For the same compound, the inhibition at 25 µM under setting [2] amounted to 31%.
For the compound `COc1ccc(O)c(C2Nc3ccccc3-n3c(-c4ccccc4C)c4c(=O)n(C)c(=O)n(C)c4c32)c1` (stereo not shown), under setting [1], the inhibition at 5 µM is less than 10%. Besides, the inhibition at 25 µM under setting [2] came to 38%.
For `Cc1cccc(-c2c3c(=O)n(C)c(=O)n(C)c3c3n2-c2ccccc2NC3c2ccc3c(c2)OCO3)c1` (stereo not shown) [PPQ-302, 7,9-Dimethyl-11-(3-methylphenyl)-6-(1,3-benzodioxol-5-yl)-5,6-dihydro-pyrimido[4′,5′-3,4]pyrrolo[1,2-a]quinoxaline-8,10-(7H,9H)-dione] the same measures were 26% and 63%.
For `Cc1ccccc1-c1c2c(=O)n(C)c(=O)n(C)c2c2n1-c1ccccc1NC2c1ccc(O)cc1` (stereo not shown) [PPQ-222, 7,9-Dimethyl-11-(2-methylphenyl)-6-(4-hydroxyphenyl)-5,6-dihydro-pyrimido[4′,5′-3,4]pyrrolo[1,2-a]quinoxaline-8,10-(7H,9H)-dione] the same measures were 32% and 84%.
`Cc1cc2c(cc1C)-n1c(-c3ccccc3F)c3c(=O)n(C)c(=O)n(C)c3c1C(c1ccccc1F)N2` (stereo not shown): the inhibition at 5 µM under setting [1] came to 23%. Also, the inhibition at 25 µM under setting [2] worked out at 35%.
For `Cc1ccccc1-c1c2c(=O)n(C)c(=O)n(C)c2c2n1-c1ccccc1NC2c1ccc(C#N)cc1` (stereo not shown) the same measures were less than 10% and 45%.
Turning to `Cc1cccc(-c2c3c(=O)n(C)c(=O)n(C)c3c3n2-c2ccccc2NC3c2cccc(F)c2)c1` (stereo not shown) [PPQ-219, 7,9-Dimethyl-11-(3-methylphenyl)-6-(3-fluorophenyl)-5,6-dihydro-pyrimido[4′,5′-3,4]pyrrolo[1,2-a]quinoxaline-8,10-(7H,9H)-dione], the IC50 was 8000 nM. The inhibition at 5 µM under setting [3] is 53%. Also, the inhibition at 25 µM under setting [4] came out at 93%. Besides, under setting [1], the inhibition at 5 µM turned out to be 53%. For the same compound, under setting [2], the inhibition at 25 µM was 93%.
Consider `Cc1cc2c(cc1C)-n1c(-c3ccccc3)c3c(=O)n(C)c(=O)n(C)c3c1C(c1ccc(O)c(O)c1)N2` (stereo not shown) [PPQ-224, 2,3,7,9-Tetramethyl-11-phenyl-6-(3,4-dihydroxyphenyl)-5,6-dihydro-pyrimido[4′,5′-3,4]pyrrolo[1,2-a]quinoxaline-8,10-(7H,9H)-dione], for which, under setting [1], the inhibition at 5 µM was 24%. Further, under setting [2], the inhibition at 25 µM was determined as 82%.
With `Cc1ccccc1-c1c2c(=O)n(C)c(=O)n(C)c2c2n1-c1ccccc1NC2c1cccc([N+](=O)[O-])c1` (stereo not shown) [PPQ-213, 7,9-Dimethyl-11-(2-methylphenyl)-6-(3-nitrophenyl)-5,6-dihydro-pyrimido[4′,5′-3,4]pyrrolo[1,2-a]quinoxaline-8,10-(7H,9H)-dione], the IC50 stood at 2000 nM. Under setting [3], the inhibition at 5 µM was 64%. Moreover, the inhibition at 25 µM under setting [4] came to 96%. The inhibition at 5 µM under setting [1] worked out at 64%. Further, under setting [2], the inhibition at 25 µM was 96%.
Regarding `CCOc1ccc(C2Nc3ccccc3-n3c(-c4ccccc4C)c4c(=O)n(C)c(=O)n(C)c4c32)cc1` (stereo not shown), the inhibition at 5 µM under setting [1] was less than 10%. For the same compound, the inhibition at 25 µM under setting [2] worked out at 32%.
For `Cc1cc2c(cc1C)-n1c(-c3ccccc3)c3c(=O)n(C)c(=O)n(C)c3c1C(c1cccc(O)c1)N2` (stereo not shown) [PPQ-223, 2,3,7,9-Tetramethyl-11-phenyl-6-(3-hydroxyphenyl)-5,6-dihydro-pyrimido[4′,5′-3,4]pyrrolo[1,2-a]quinoxaline-8,10-(7H,9H)-dione] the same measures were 36% and 92%.
For `Cc1ccc(C2Nc3ccccc3-n3c(-c4ccc(Cl)cc4)c4c(=O)n(C)c(=O)n(C)c4c32)o1` (stereo not shown) [PPQ-111, 7,9-Dimethyl-11-(4-cholophenyl)-6-(5-methylfuran-2-yl)-5,6-dihydro-pyrimido[4′,5′-3,4]pyrrolo[1,2-a]quinoxaline-8,10-(7H,9H)-dione] the same measures were 31% and 75%.
For `COc1ccc(-c2c3c(=O)n(C)c(=O)n(C)c3c3n2-c2ccccc2NC3c2ccccc2)cc1` (stereo not shown) the same measures were less than 10% and 39%.
As for `COc1cc(O)ccc1C1Nc2ccccc2-n2c(-c3ccccc3)c3c(=O)n(C)c(=O)n(C)c3c21` (stereo not shown) [PPQ-208, 7,9-Dimethyl-11-phenyl-6-(2-methoxy-4-hydroxyphenyl)-5,6-dihydro-pyrimido[4′,5′-3,4]pyrrolo[1,2-a]quinoxaline-8,10-(7H,9H)-dione], the half-inhibitory concentration (IC50) was 100000 nM. The inhibition at 25 µM under setting [4] was 56%. Also, under setting [1], the inhibition at 5 µM turned out to be 13%. The inhibition at 25 µM under setting [2] came out at 56%.
Take `Cc1cccc(-c2c3c(=O)n(C)c(=O)n(C)c3c3n2-c2ccccc2NC3c2ccc(C)o2)c1` (stereo not shown) [PPQ-101, 7,9-Dimethyl-11-(3-methylphenyl)-6-(5-methylfuran-2-yl)-5,6-dihydro-pyrimido[4′,5′-3,4]pyrrolo[1,2-a]quinoxaline-8,10-(7H,9H)-dione]: the IC50 is 700 nM. Moreover, under setting [1], the inhibition at 5 µM is more than 95%. In addition, the inhibition at 25 µM under setting [2] was more than 95%.
Take `Cc1cc2c(cc1C)-n1c(-c3ccccc3)c3c(=O)n(C)c(=O)n(C)c3c1C(c1cccc(O)c1O)N2` (stereo not shown) [PPQ-236, 2,3,7,9-Tetramethyl-11-phenyl-6-(2,3-dihydroxyphenyl)-5,6-dihydro-pyrimido[4′,5′-3,4]pyrrolo[1,2-a]quinoxaline-8,10-(7H,9H)-dione]: the inhibition at 5 µM under setting [1] was determined as 14%. The inhibition at 25 µM under setting [2] turned out to be 80%.
For `COc1cc(C2Nc3ccccc3-n3c(-c4ccccc4F)c4c(=O)n(C)c(=O)n(C)c4c32)ccc1O` (stereo not shown) [PPQ-251, 7,9-Dimethyl-11-(2-fluorophenyl)-6-(3-methoxy-4-hydroxyphenyl)-5,6-dihydro-pyrimido[4′,5′-3,4]pyrrolo[1,2-a]quinoxaline-8,10-(7H,9H )-dione] the same measures were 13% and 62%.
Take `Cc1cc2c(cc1C)-n1c(-c3ccccc3)c3c(=O)n(C)c(=O)n(C)c3c1C(c1ccc(O)cc1)N2` (stereo not shown) [PPQ-203, 2,3,7,9-Tetramethyl-11-phenyl-6-(4-hydroxyphenyl)-5,6-dihydro-pyrimido[4′,5′-3,4]pyrrolo[1,2-a]quinoxaline-8,10-(7H,9H)-dione]: the IC50 was determined as 1500 nM. Besides, the inhibition at 5 µM under setting [3] worked out at 80%. The inhibition at 5 µM under setting [1] is 80%. The inhibition at 25 µM under setting [2] is more than 95%.
`Cc1cc2c(cc1C)-n1c(-c3ccccc3)c3c(=O)n(C)c(=O)n(C)c3c1C(c1cc(O)ccc1O)N2` (stereo not shown) [PPQ-247, 2,3,7,9-Tetramethyl-11-phenyl-6-(2,5-dihydroxyphenyl)-5,6-dihydro-pyrimido[4′,5′-3,4]pyrrolo[1,2-a]quinoxaline-8,10-(7H,9H)-dione]: the inhibition at 5 µM under setting [1] came to 13%. For the same compound, the inhibition at 25 µM under setting [2] turned out to be 58%.
On to `Cc1ccc(C2Nc3cc(C)c(C)cc3-n3c(-c4ccccc4)c4c(=O)n(C)c(=O)n(C)c4c32)o1` (stereo not shown) [PPQ-104, 2,3,7,9-Tetramethyl-11-phenyl-6-(5-methylfuran-2-yl)-5,6-dihydro-pyrimido[4′,5′-3,4]pyrrolo[1,2-a]quinoxaline-8,10-(7H,9H)-dione], for which the IC50 came to 800 nM. Besides, the inhibition at 5 µM under setting [3] was determined as 84%. The inhibition at 25 µM under setting [4] is 90%. In addition, under setting [1], the inhibition at 5 µM came out at 84%. Further, the inhibition at 25 µM under setting [2] was 90%.
For `COc1ccc(-c2c3c(=O)n(C)c(=O)n(C)c3c3n2-c2ccccc2NC3c2cccc(C)c2)cc1` (stereo not shown), the inhibition at 5 µM under setting [1] is less than 10%. In addition, the inhibition at 25 µM under setting [2] amounted to 35%.
